“Also recorded” adds a separate entry of the source. Where two headings read alike, the source gives them in different places.
Columns and labels:
5α-reductase 2 = conditions: isozyme predominating in the prostate, cited from earlier work
[1] = test system: men with clinical benign prostatic hyperplasia (BPH); test: Four-year double-blind placebo-controlled clinical study of finasteride, analysed by concomitant calcium channel blocker use; format: in vivo, human; conditions: for Hazard Ratio (95% CI), AUR / Hazard Ratio (95% CI), Precipitated AUR / Hazard Ratio (95% CI), Spontaneous AUR / Hazard Ratio (95% CI), Surgery / Hazard Ratio (95% CI), Surgery and AUR: finasteride vs placebo; for Urologic events: AUR (incidence) / Urologic events: Precipitated AUR (incidence) / Urologic events: Spontaneous AUR (incidence) / Urologic events: Surgery (incidence) / Urologic events: Surgery and AUR (incidence): 5 mg finasteride daily, four-year study
Experimental: A total of 3040 men with clinical benign prostatic hyperplasia (BPH) diagnosed on the basis of moderate-to-severe symptoms, a decreased peak urinary flow rate (less than 15 mL/sec with a voided volume of 150 mL or more) and an enlarged prostate gland by digital rectal examination (DRE) were enrolled in a four-year study comparing finasteride with placebo. Men receiving alpha blocking agents or antiandrogens, and men with a history of chronic prostatitis, recurrent urinary tract infections, prostate or bladder cancer or surgery, or a serum prostate specific antigen (PSA) over 10 ng/mL were excluded. Men with serum PSA concentrations between 4.0 and 9.9 ng/mL had to have a negative prostate biopsy prior to enrollment.
After a one-month single-blind placebo lead-in, men were randomly assigned to receive placebo or 5 mg of finasteride (17β-(N-tert-butylcarbamoyl)-3-oxo-4-aza-5α-androst-1-en-3-one)daily in a four year, double-blind placebo-controlled study. BPH-related outcomes including symptoms, bothersomeness, adverse events and urinary flow rates, were assessed every 4 months. Serum PSA was measured every 4 months in the first year and then every 8 months at a central laboratory. Physical examination and routine hematological and serum chemistry tests were performed yearly. Magnetic resonance imaging (MRI) was performed at baseline and subsequently yearly in a subset of 10% of patients. All MRI images were read by a central radiologist blinded to treatment allocation and time of imaging.
Acute urinary retention (AUR) and surgery for BPH were predefined secondary end-points. The endpoint committee, blinded to treatment group, reviewed all study-related documents related to episodes of acute urinary retention, and all prostate surgeries for BPH, excluding surgery for prostate cancer. The endpoint committee classified episodes of AUR as spontaneous versus precipitated (when contributing factors such as urinary tract infection, surgery anesthesia, ingestion of alpha sympathomimetic drugs or anticholinergics were identified).
For a relatively clean comparison, data from patients in categories (a) and (b) were analyzed and patients in category (c) were excluded.

5α-reductase 1 = conditions: isozyme predominating in sebaceous glands of facial and skin tissue; G. Harris et al. 1992; cited from earlier work
[2] = finasteride treated patients also on calcium channel blockers vs not on calcium channel blockers
[3] = patients who did not take a calcium channel blocker
[4] = patients who took a calcium channel blocker for more than 365 days
[5] = patients who did not take a calcium channel blocker, N = 1181
[6] = patients who took a calcium channel blocker for more than 365 days, N = 236

## CC(C)(C)NC(=O)[C@H]1CC[C@H]2[C@@H]3CC[C@H]4NC(=O)C=C[C@]4(C)[C@H]3CC[C@]12C [Finasteride, 17β-(N-tert-butylcarbamoyl)-3-oxo-4-aza-5α-androst-1-ene-3-one]
5α-reductase 2
  inhibition of 5α-reductase type 2 (human prostate enzyme): potent inhibitor
5α-reductase 2; listed as finasteride
  inhibition of 5α-reductase type 2 (human prostate enzyme): potently inhibited
[1]; finasteride only group
  rate of improvement in symptom score by month 16: continued to increase
[1]; finasteride plus calcium channel blocker for more than 365 days, compared with finasteride only and placebo groups (FIG. 1)
  change of PSA (prostate specific antigen) versus time in the study: greater decrease in PSA; also recorded: greatest decrease in PSA
[1]; finasteride plus calcium channel blocker for more than 365 days, compared with finasteride only and placebo groups (FIG. 2)
  change in Quasi-AUA symptom score versus time in the study: initally improved much faster; also recorded: greatest decrease in symptom score
[1]; finasteride plus calcium channel blocker for more than 365 days, compared with finasteride only and placebo groups (FIG. 3)
  change in maximum urinary flow rate versus time in the study: greater increase in maximum urinary flow rate; also recorded: greatest increase in maximum flow rate after 12 months
[1]; finasteride plus calcium channel blocker for more than 365 days, compared with finasteride only and placebo groups (FIG. 4)
  change in prostate volume versus time in the study: greater decrease; also recorded: greatest decrease in prostate volume
[1]; finasteride plus calcium channel blocker group
  rate of improvement in symptom score by month 16: decreased rate of improvement in symptom score
[1]; [2]
  incidence of spontaneous acute urinary retention (AUR) (comparison): lower
  incidence of urologic surgery (comparison): lower
[1]; [3]
  Hazard Ratio (95% CI), AUR: 0.44 (0.30 to 0.64)
  Hazard Ratio (95% CI), Precipitated AUR: 0.55 (0.31 to 0.99)
  Hazard Ratio (95% CI), Spontaneous AUR: 0.38 (0.23 to 0.62)
  Hazard Ratio (95% CI), Surgery: 0.42 (0.31 to 0.57)
  Hazard Ratio (95% CI), Surgery and AUR: 0.48 (0.37 to 0.62)
[1]; [4]
  Hazard Ratio (95% CI), AUR: 0.46 (0.20 to 1.10)
  Hazard Ratio (95% CI), Precipitated AUR: 0.50 (0.19 to 1.31)
  Hazard Ratio (95% CI), Spontaneous AUR: 0.24 (0.05 to 1.21)
  Hazard Ratio (95% CI), Surgery: 0.55 (0.25 to 1.22)
  Hazard Ratio (95% CI), Surgery and AUR: 0.53 (0.28 to 1.00)
[1]; [5]
  Urologic events: AUR (incidence): 2.6%
  Urologic events: Precipitated AUR (incidence): 1.4%
  Urologic events: Spontaneous AUR (incidence): 1.4%
  Urologic events: Surgery (incidence): 4.4%
  Urologic events: Surgery and AUR (incidence): 6.4%
[1]; [6]
  Urologic events: AUR (incidence): 3.0%
  Urologic events: Precipitated AUR (incidence): 2.5%
  Urologic events: Spontaneous AUR (incidence): 0.4%
  Urologic events: Surgery (incidence): 3.8%
  Urologic events: Surgery and AUR (incidence): 5.9%
5α-reductase 1
  sensitivity of 5α-reductase type 1 to finasteride: relatively insensitive
